Data: patent publication US12552796B2, “EED inhibitor, and preparation method therefor and use thereof” (SHANGHAITECH UNIVERSITY, priority 2019, dated 2026)

Assays:
[1] = system: WSU-DLCL2 cells; test: Cell proliferation assay, WSU-DLCL2; assay type: cell-based; details: Homo sapiens, WSUDLCL2; WSU-DLCL2 cells, cultured to the 9th day; read-out: Anti-proliferation IC50
Description: (§1) Human B-cell non-Hodgkin's lymphoma cells WSU-DLCL2, Karpas422 and Pfeiffer were cultured in cell culture flasks in a sterile incubator with 95% relative humidity and 5% CO2 at 37° C. The medium was RPMI-1640 (Gibco, product No. 31800022) containing 15% fetal bovine serum (FBS, Gibco, product No. 10099141) and 0.1% penicillin/streptomycin solution (P/S). In order to assay the effects of compounds on cell proliferation, cells in exponential growth phase were seeded into a 12-well plate (Nunc, product No. 150628) with 1 mL of medium per well, wherein WSU-DLCL2 and Karpas422 were seeded at a density of 1×10^5 cells/well, and Pfeiffer was seeded at a density of 2×10^5 cells/well. At the same time, different concentrations of compounds were added to the wells that had seeded with cells (6 concentrations were set for each compound at 3-fold serial dilution), and the final concentration of DMSO was 0.1%. After that, the number of viable cells was determined by Vi-CELL (Beckman Coulter) for WSU-DLCL2 and Pfeiffer every 3 days, and for Karpas422 on days 4, 7, and 11, respectively. The cells counted each time were seeded into a new 12-well plate at the same density, and supplemented with fresh medium to 1 mL. Different concentrations of compounds were added at the same time. WSU-DLCL2 and Pfeiffer were cultured to the 9th day, and Karpas422 was cultured to the 14th day. Cell data were collected uniformly, and analyzed with GraphPad prisim5. Dose curves were fitted, and IC50 values of the assay compounds were obtained.

[2] = Pharmacokinetic study in canine; assay type: in vivo, Beagle dogs; details: Beagle dog; for AUC(0-inf) / Cmax / Tmax / clearance / half-life / MRT inf: male, plasma; for MRT inf: read-out: MRT0-∞
Description: Six ordinary Beagle dogs, male, weighing 10-12 kg, were randomly divided into 2 groups with 3 dogs in each group. The compounds of the present disclosure were administered by oral gavage (PO) and intravenous injection (IV), respectively, and the assay compounds were formulated with the corresponding vehicles.
Dosage: 1 mg/kg for intravenous injection and 5 mg/kg for oral administration.
(§2) Dosing volume: 5 mL/kg for intravenous injection and 10 mL/kg for oral administration.
The oral administration group was fasted overnight (10-14 h) before the assay, and drank water freely. After 4 hours of administration, they were fed uniformly. They were weighed before administration, and the dosage was calculated according to the body weight. 2. Blood collection time point and sample processing:
Intravenous administration: 0.083, 0.25, 0.5, 1, 2, 4, 8, 12 and 24 h after administration;
Oral gavage administration: 0.25, 0.5, 1, 2, 4, 6, 8, 12 and 24 h after administration;
Blood was collected from the veins of extremities, about 0.5-1 mL each time. The blood was anticoagulated with heparin sodium, placed on ice after collection, and centrifuged within 1 hour to separate the plasma (centrifugation conditions: 6800 g, 6 minutes, 2-8° C.). Plasma samples were stored in a −80° C. freezer prior to analysis.
The concentration of each compound in canine plasma was determined by LC/MS/MS method.
(§3) Through the plasma drug concentration data at different time points, pharmacokinetic parameters were calculated using Phoenix WinNonlin 7.0, thereby providing parameters such as AUC0-t, AUC0-∞, MRT0-∞, Cmax, Tmax, and T1/2 and mean and standard deviation thereof.

[3] = system: Pfeiffer cells; test: Cell proliferation assay, Pfeiffer; assay type: cell-based; details: Homo sapiens, cultured to the 9th day, read-out: Anti-proliferation IC50
Description: as §1

[4] = system: Karpas422 cells; test: Cell proliferation assay, Karpas422; assay type: cell-based; details: Homo sapiens, KARPAS-422; Karpas422 cells, cultured to the 14th day; read-out: Anti-proliferation IC50
Description: as §1

[5] = Pharmacokinetic study in rats; assay type: in vivo, SD rats; details: rat; for AUC(0-inf) / Cmax / Tmax / clearance / half-life / MRT inf: male, SD, plasma; for MRT inf: read-out: MRT0-∞
Description: Six SPF SD rats, male, weighing 180-220 g, were randomly divided into 2 groups with 3 rats in each group. The compounds of the present disclosure were administered by oral gavage (PO) and intravenous injection (IV), respectively, and the assay compounds were formulated with a vehicle (5% DMSO+10% Solutol+85% pH 4.65 Acetate buffer).
Dosage: 1 mg/kg for intravenous injection and 2 mg/kg for oral administration.
as §2
The oral administration group was fasted overnight (10-14 h) before the assay, and drank water freely. After 4 hours of administration, they were fed uniformly. They were weighed before administration, and the dosage was calculated according to the body weight.
Intravenous administration: 0.083, 0.25, 0.5, 1, 2, 4, 6, 8, 10 and 24 h after administration;
Oral gavage administration: 0.25, 0.5, 1, 2, 4, 6, 8, 10, 12 and 24 h after administration;
Blood was collected from the jugular vein of rats at the above set time points, about 0.2 mL each time. The blood was anticoagulated with heparin sodium, placed on ice after collection, and centrifuged within 1 hour to separate the plasma (centrifugation conditions: 6800 g, 6 minutes, 2-8° C.). Plasma samples were stored in a −80° C. freezer prior to analysis.
The concentration of each compound in rat plasma was determined by LC/MS/MS method.
as §3

[6] = system: cellular H3K27 methylation; test: Cellular H3K27 methylation assay (Western blot of H3K27me3 in HeLa cells); assay type: cell-based; details: Homo sapiens, 72 h; HeLa cells, 3 days, H3K27me3 level by Western blot; read-out: PD IC50
[7] = system: Karpas 422 human B-cell lymphoma cells; test: Mouse Karpas422 CDX model, tumor growth; assay type: in vivo, balb/c nude mice; details: Karpas422 CDX mice; for tumor growth inhibition (TGI %), Day 11 after administration / tumor growth inhibition (TGI %), Day 21 after administration: intragastric; for effect on tumor growth (FIG. 1): different dosages
Description: Female balb/c nude mice aged 6-8 weeks were selected and housed under SPF conditions (i.e., 20-22° C.; 40-70% relative humidity) in individual ventilated cages at constant temperature and humidity. There were 5 or fewer animals in each cage. Animals had access to dry pelleted food sterilized by irradiation and sterile drinking water. Karpas 422 human B-cell lymphoma cells were cultured in RPMI-1640 (Gibco, product No. 31800022) containing 15% fetal bovine serum (FBS, Gibco, product No. 10099141) and 0.1% penicillin/streptomycin solution (P/S). The cells were cultured in a sterile incubator at a temperature of 37° C., a relative humidity of 95%, and 5% CO2. Karpas 422 cells cultured in vitro were maintained at a concentration between 0.5-2×10^6 cells/mL cells in suspension culture and passaged at a 1:3 dilution every 2-4 days. To establish the xenograft model, cells were collected, resuspended in PBS, mixed 1:1 by volume with Matrigel (BD) at a concentration of 5×10^7 cells/mL, and then injected subcutaneously into the right side of balb/c nude mice (Vital River) with 5×10^6 cells per animal. When tumors grew to about 150 mm^3, mice were divided into groups with 6 mice in each group. The mice were administered intragastrically, and the tumor size and mouse body weight were measured twice a week. The two largest diameters of the transplanted tumor, width (W) and length (L), were manually measured with a vernier caliper, and the tumor volume was estimated using the formula: 0.5×L×W^2. After the assay, the mice were euthanized.
The assay compounds were prepared as a suspension in pure water containing 0.5% HPMC+0.5% Tween 80 as a solvent. The dosing volume was 10 mL/kg.
In this study, changes in mouse tumor volume and relative changes in mouse body weight were assayed, and the results were shown in FIGS. 1 and 2.

Structure (SMILES)	IC50 [1]	F ([2]; PO, 5 mg/kg)	AUC(0-inf) ([2]; IV, 1 mg/kg)	Cmax ([2]; IV, 1 mg/kg)	Tmax ([2]; IV, 1 mg/kg)	clearance ([2]; IV, 1 mg/kg)	half-life ([2]; IV, 1 mg/kg)	MRT inf ([2]; IV, 1 mg/kg)	AUC(0-inf) ([2]; PO, 5 mg/kg)	Cmax ([2]; PO, 5 mg/kg)	Tmax ([2]; PO, 5 mg/kg)	half-life ([2]; PO, 5 mg/kg)	MRT inf ([2]; PO, 5 mg/kg)	IC50 [3]	IC50 [4]	AUC(0-inf) ([5]; IV, 1 mg/kg)	Cmax ([5]; IV, 1 mg/kg)	Tmax ([5]; IV, 1 mg/kg)	clearance ([5]; IV, 1 mg/kg)	half-life ([5]; IV, 1 mg/kg)	other results
CN(C(=O)C1CC1)c1cnc(NCc2c(F)ccc3c2CCO3)n2cnnc12 [HJM-045]	0.0092 µM	90.95%	4500 ng·h/mL	1150 ng/mL	0.08 h	3.7 mL/min/kg	4.13 h	5.35 h	20700 ng·h/mL	3700 ng/mL	0.5 h	4.29 h	5.75 h	0.0105 µM	0.0135 µM	639 ng·h/mL	794 ng/mL	0.08 h	26.4 mL/min/kg	1.17 h	MRT inf ([5]; IV, 1 mg/kg): 1.06 h; AUC(0-inf) ([5]; PO, 2 mg/kg): 628 ng·h/mL; Cmax ([5]; PO, 2 mg/kg): 119 ng/mL; Tmax ([5]; PO, 2 mg/kg): 2.83 h; half-life ([5]; PO, 2 mg/kg): 1.46 h; MRT inf ([5]; PO, 2 mg/kg): 3.51 h; F ([5]; PO, 2 mg/kg): 48.40%; IC50 [6]: 0.013 µM; tumor growth inhibition (TGI %), Day 11 after administration ([7]; 30 mg/kg): 0.25%; tumor growth inhibition (TGI %), Day 21 after administration ([7]; 30 mg/kg): 60.06%; tumor growth inhibition (TGI %), Day 11 after administration ([7]; 100 mg/kg): 10.7%; tumor growth inhibition (TGI %), Day 21 after administration ([7]; 100 mg/kg): 81.43%; effect on tumor growth (FIG. 1) [7]: complete tumor disappearance
Fc1ccc2c(c1CNc1ncc(OC3CCOCC3)c3nncn13)CCO2 [HJM-016]	0.0864 µM	62.50%	8840 ng·h/mL	1220 ng/mL	0.08 h	1.92 mL/min/kg	5.87 h	8.39 h	27200 ng·h/mL	2900 ng/mL	2 h	5.18 h	7.97 h	0.0557 µM	0.0749 µM	2060 ng·h/mL	932 ng/mL	0.08 h	8.24 mL/min/kg	2.33 h	MRT inf ([5]; IV, 1 mg/kg): 2.94 h; AUC(0-inf) ([5]; PO, 2 mg/kg): 3900 ng·h/mL; Cmax ([5]; PO, 2 mg/kg): 482 ng/mL; Tmax ([5]; PO, 2 mg/kg): 4 h; half-life ([5]; PO, 2 mg/kg): 2.8 h; MRT inf ([5]; PO, 2 mg/kg): 5.58 h; F ([5]; PO, 2 mg/kg): 98.86%; IC50 [6]: 0.0347 µM; tumor growth inhibition (TGI %), Day 11 after administration ([7]; 30 mg/kg): 8.5%; tumor growth inhibition (TGI %), Day 21 after administration ([7]; 30 mg/kg): 56.1%; tumor growth inhibition (TGI %), Day 11 after administration ([7]; 100 mg/kg): 52.3%; tumor growth inhibition (TGI %), Day 21 after administration ([7]; 100 mg/kg): 105.39%; effect on tumor growth (FIG. 1) [7]: complete tumor disappearance
Fc1ccc2c(c1CNc1ncc(OCC3COC3)c3nncn13)CCO2 [HJM-104]	0.0296 µM	102.43%	3230 ng·h/mL	864 ng/mL	0.08 h	5.9 mL/min/kg	1.67 h	2.86 h	16500 ng·h/mL	3380 ng/mL	1 h	2.09 h	3.53 h	0.0816 µM	0.102 µM	1980 ng·h/mL	1360 ng/mL	0.08 h	8.47 mL/min/kg	2.7 h	MRT inf ([5]; IV, 1 mg/kg): 2.37 h; AUC(0-inf) ([5]; PO, 2 mg/kg): 3470 ng·h/mL; Cmax ([5]; PO, 2 mg/kg): 586 ng/mL; Tmax ([5]; PO, 2 mg/kg): 3.33 h; half-life ([5]; PO, 2 mg/kg): 2.21 h; MRT inf ([5]; PO, 2 mg/kg): 4.43 h; F ([5]; PO, 2 mg/kg): 89.41%; IC50 [6]: 0.0527 µM; tumor growth inhibition (TGI %), Day 11 after administration ([7]; 30 mg/kg): 39.4%; tumor growth inhibition (TGI %), Day 21 after administration ([7]; 30 mg/kg): 93.29%; tumor growth inhibition (TGI %), Day 11 after administration ([7]; 100 mg/kg): 88.9%; tumor growth inhibition (TGI %), Day 21 after administration ([7]; 100 mg/kg): 111.9%; effect on tumor growth (FIG. 1) [7]: complete tumor disappearance
